Data taken from patent publication US7109234B2, “Benzoxathiepine derivatives and their use as medicines” (Pierre Fabre Medicament, priority 2001, dated 2006).
Structures can show the parent of a compound that is named as a salt.

melting point [°C]	Compound
86 to 88	CC[C@@H](CN[C@@H]1COc2ccccc2SC1)CSc1ccccc1OC (as salt: fumarate) [Compound 1-9, 3-(R)-[3-(2-Methoxyphenylthio)-2-(S)-ethylpropyl]amino-3,4-dihydro-2H-1,5-benzoxathiepine]
122	COc1ccccc1SC[C@H](CN[C@@H]1COc2ccccc2SC1)OC (as salt: maleate) [Compound 1-1, 3-(R)-[3-(2-Methoxyphenylthio)-2-(S)-methoxypropyl]amino-3,4-dihydro-2H-1,5-benzoxathiepine]
116	COc1ccccc1SC[C@@H](CN[C@@H]1COc2ccccc2SC1)OC (as salt: maleate) [Compound 1-2, 3-(R)-[3-(2-Methoxyphenylthio)-2-(R)-methoxypropyl]amino-3,4-dihydro-2H-1,5-benzoxathiepine]
133 to 135	COc1ccccc1SC[C@@H](O)CN[C@@H]1COc2ccccc2SC1 (as salt: maleate) [Compound 1-5, 3-(R)-[3-(2-Methoxyphenylthio)-2-(S)-hydroxypropyl]amino-3,4-dihydro-2H-1,5-benzoxathiepine]
136 to 138	COc1ccccc1SC[C@H](O)CN[C@@H]1COc2ccccc2SC1 (as salt: maleate) [Compound 1-6, 3-(R)-[3-(2-Methoxyphenylthio)-2-(R)-hydroxypropyl]amino-3,4-dihydro-2H-1,5-benzoxathiepine]
140	CC[C@H](CN[C@@H]1COc2ccccc2SC1)CSc1ccccc1OC (as salt: maleate) [Compound 1-10, 3-(R)-[3-(2-Methoxyphenylthio)-2-(R)-ethylpropyl]amino-3,4-dihydro-2H-1,5-benzoxathiepine]
132 to 133	CCC[C@@H](CN[C@@H]1COc2ccccc2SC1)CSc1ccccc1OC (as salt: maleate) [Compound 1-11, 3-(R)-[3-(2-Methoxyphenylthio)-2-(S)-(n-propyl)propyl]amino-3,4-dihydro-2H-1,5-benzoxathiepine]
131 to 133	CCC[C@H](CN[C@@H]1COc2ccccc2SC1)CSc1ccccc1OC (as salt: maleate) [Compound 1-12, 3-(R)-[3-(2-Methoxyphenylthio)-2-(R)-(n-propyl)propyl]amino-3,4-dihydro-2H-1,5-benzoxathiepine]
114 to 115	COc1ccccc1SC[C@H](CN[C@@H]1COc2ccccc2SC1)C(C)C (as salt: maleate) [Compound 1-13, 3-(R)-[3-(2-Methoxyphenylthio)-2-(S)-(isopropyl)propyl]amino-3,4-dihydro-2H-1,5-benzoxathiepine]
148	COc1ccccc1SC[C@@H](C)CN[C@@H]1COc2ccc(C)cc2SC1 (as salt: maleate) [Compound 1-14, 3-(R)-[3-(2-Methoxyphenylthio)-2-(S)-methylpropyl]amino-7-methyl-3,4-dihydro-2H-1,5-benzoxathiepine]
111 to 113	COc1ccccc1SC[C@@H](C)CN[C@@H]1COc2cccc(C)c2SC1 (as salt: maleate) [Compound 1-15, 3-(R)-[3-(2-Methoxyphenylthio)-2-(S)-methylpropyl]amino-6-methyl-3,4-dihydro-2H-1,5-benzoxathiepine]
116 to 118	C[C@@H](CN[C@@H]1COc2ccccc2SC1)CSc1cccc2c1OCC2 (as salt: maleate) [Compound 1-16, 3-(R)-[3-(2,3-Dihydrobenzofuran-7-thio)-2-(S)-methylpropyl]amino-3,4-dihydro-2H-1,5-benzoxathiepine]
124 to 126	Cc1cccc(SC[C@@H](C)CN[C@@H]2COc3ccccc3SC2)c1O (as salt: maleate) [Compound 1-17, 3-(R)-[3-(2-Hydroxy-3-methylphenylthio)-2-(S)-methylpropyl]amino-3,4-dihydro-2H-1,5-benzoxathiepine]
119 to 121	C[C@@H](CN[C@@H]1COc2ccccc2SC1)CSc1ccccc1O (as salt: maleate) [Compound 1-18, 3-(R)-[3-(2-Hydroxyphenylthio)-2-(S)-methylpropyl]amino-3,4-dihydro-2H-1,5-benzoxathiepine]
120	CCc1cccc(SC[C@@H](C)CN[C@@H]2COc3ccccc3SC2)c1O (as salt: maleate) [Compound 1-19, 3-(R)-[3-(2-Hydroxy-3-ethylphenylthio)-2-(S)-methylpropyl]amino-3,4-dihydro-2H-1,5-benzoxathiepine]
111 to 112	CC[C@@H](CN[C@@H]1COc2ccccc2SC1)CSc1cccc(C)c1O (as salt: maleate) [Compound 1-20, 3-(R)-[3-(2-Hydroxy-3-methylphenylthio)-2-(S)-ethylpropyl]amino-3,4-dihydro-2H-1,5-benzoxathiepine]
127	Cc1cccc(SC[C@H](CN[C@@H]2COc3ccccc3SC2)C(C)C)c1O (as salt: maleate) [Compound 1-21, 3-(R)-[3-(2-Hydroxy-3-methylphenylthio)-2-(S)-(isopropyl)propyl]amino-3,4-dihydro-2H-1,5-benzoxathiepine]
108 to 109	Cc1cccc(SC[C@@H](C)CN[C@@H]2COc3cccc(C)c3SC2)c1O (as salt: maleate) [Compound 1-22, 3-(R)-[3-(2-Hydroxy-3-methylphenylthio)-2-(S)-methylpropyl]amino-6-methyl-3,4-dihydro-2H-1,5-benzoxathiepine]
137 to 139	COc1cccc(SC[C@@H](C)CN[C@@H]2COc3ccccc3SC2)c1O (as salt: maleate) [Compound 1-23, 3-(R)-[3-(2-Hydroxy-3-methoxyphenylthio)-2-(S)-methylpropyl]amino-3,4-dihydro-2H-1,5-benzoxathiepine]
117 to 119	COc1cccc(SC[C@@H](C)CN[C@@H]2COc3ccccc3SC2)c1OC (as salt: maleate) [Compound 1-24, 3-(R)-[3-(2,3-Dimethoxyphenylthio)-2-(S)-methylpropyl]amino-3,4-dihydro-2H-1,5-benzoxathiepine]
126	CC(C)c1cccc(SC[C@@H](C)CN[C@@H]2COc3ccccc3SC2)c1O (as salt: maleate) [Compound 1-25, 3-(R)-[3-(2-Hydroxy-3-(isopropyl)phenylthio)-2-(S)-methylpropyl]amino-3,4-dihydro-2H-1,5-benzoxathiepine]
153 to 154	Cc1cccc(O)c1SC[C@@H](C)CN[C@@H]1COc2ccccc2SC1 (as salt: maleate) [Compound 1-26, 3-(R)-[3-(2-Hydroxy-6-methylphenylthio)-2-(S)-methylpropyl]amino-3,4-dihydro-2H-1,5-benzoxathiepine]
176 to 177	Oc1ccccc1SC[C@@H](O)CN[C@@H]1COc2ccccc2SC1 (as salt: oxalate) [Compound 1-3, 3-(R)-[3-(2-Hydroxyphenylthio)-2-(S)-hydroxypropyl]amino-3,4-dihydro-2H-1,5-benzoxathiepine]
135	Oc1ccccc1SC[C@H](O)CN[C@@H]1COc2ccccc2SC1 (as salt: oxalate) [Compound 1-4, 3-(R)-[3-(2-Hydroxyphenylthio)-2-(R)-hydroxypropyl]amino-3,4-dihydro-2H-1,5-benzoxathiepine]
